Source: patent US9051245B2 (UHA MIKAKUTO CO., LTD., priority 2011, dated 2015)
Where two headings read alike, the source gives them in different places.

Columns and labels:
[1] = tested on: HL-60 cells (human myeloid leukemia cells); experiment: Cancer cell growth inhibitory action using HL-60 cells (Cell counting kit-8); type: cell-based; conditions: for IC50: HL-60 cells, 24 hours, read-out: Cell growth inhibition ability (IC50); for Effect of inhibiting the growth of the HL-60 cells compared with resveratrol and E-viniferin: relative to resveratrol and ε-viniferin
Description: Next, in order to see the effect of each compound to cancer cells, the cancer cell growth inhibitory action using HL-60 cells (human myeloid leukemia cells) was tested.
As culturing of cells, one in which 4 mM glutamine (L-glutamine, Sigma-Aldrich, “G8540-100G”) and 10% FBS (fetal bovine serum, Biological Industries, “04-001-1A”) were added to a high nutrient medium […] (Sigma-Aldrich, “R0883”) was used as a culture solution, and then subculture was performed. For a test, a 96-well plate for cell culture (Corning, “3595”) was used. The number of cells was adjusted on the test day in such a manner that the number of the HL-60 cells was 5×10^5 cell/mL, and then seeded in the 96-well plate with 100 μL/well.
For the preparation of the samples, each compound was dissolved with DMSO (dimethylsulfoxide, Wako Pure Chemical Industries, “046-21981”), and then the final concentration in the culture solution of the HL-60 cells of the samples was adjusted to be 10 μM, 30 μM, 100 μM, and 300 μM, respectively, and then the test was started.
For the detection of the cell growth inhibitory effect, the detection was performed by a MTT method using “Cell counting kit-8” (Dojin Chemical Laboratory, “347-07621”). More specifically, 24 hours after starting the test, 10 μL of the detection liquid of the cell counting kit-8 was added to each well, and then sufficiently stirred. Thereafter, a shading reaction was performed, the absorbance at 450 nm was measured using a plate reader (Biorad Laboratories, “BIO-RAD Model 680”), and then the obtained data were treated. The cell viability is a value obtained by calculation under the conditions where the number of survival cells of the cells treated with the culture solution to which DMSO was added was 100% and the number of survival cells of the cells under the concentration of each compound was defined as a relative value. From the relationship between each sample concentration and the cell viability, the concentration IC50 (50% inhibitory concentration) which inhibits the cell growth by 50% was calculated.

[2] = DPPH radical elimination method (antioxidation); conditions: for IC50: DPPH radical, 20 minutes, absorbance 520 nm, read-out: Radical capturing ability (IC50); for Antioxidation activity compared with resveratrol: DPPH, relative to resveratrol
Description: A test of the antioxidation effect of the UHA4002 and 4003 was performed. The test was performed by adopting a DPPH (1,1-diphenyl-2-picrylhydrazyl) radical elimination method. A technique thereof is mentioned below.
About the main experiment method of the DPPH radical elimination method, the test was advanced with reference to a technique described in “Methods for Functional Food Analysis” (Published by Korin Publishing Co., Ltd., edited by Kazuki SHINOHARA, Tateo SUZUKI, and Shuichi KAMINOGAWA, 2000). […] The DPPH reaction liquid was adjusted in such a manner as to be 400 μM DPPH (Sigma-Aldrich “D9132”), 50 mM MES (2-morpholinoethanesulphonic acid, Dojindo Laboratories, “345-01625”), and 75% ethanol. The reaction was performed in a 96-well plate (As One, “1-6776-03”), and 100 μL of the samples and 100 μL of the DPPH reaction liquid were placed, and then mixed. The mixture was allowed to stand still in a shading state for 20 minutes, and then each absorbance at 520 nm was measured with a plate reader.
The IC50 refers to a concentration of each sample which is considered to have an ability of eliminating 50% DPPH radical.

[3] = tested on: Bacillus subtilis (NBRC 3134); experiment: Antibacterial paper disc method; type: cell-based; conditions: 24 hours, read-out: Diameter of inhibition zone; for zone of inhibition at 1000 µM: NBRC3134, added concentration 1 mM; for zone of inhibition at 5000 µM: NBRC3134, added concentration 5 mM; for zone of inhibition at 10000 µM: NBRC3134, added concentration 10 mM
Description: An assay was performed by a paper disc method for the purpose of confirming the antibacterial action of the UHA4002 and 4003. The paper disc method is a known technique capable of easily investigating the antibacterial activity of a test substance by creating each inhibition zone of the test substance. The assay was performed using, as a fungus body, Bacillus subtilis (NBRC 3134) purchased from National Institute of Technology and Evaluation Biological Resource Center NBRC. For the raise of a fungus body and a culture method thereof, No. 702 which is a culture solution specified by NBRC was adjusted and used. The culture was performed at 37° C. The experiment method of the paper disc method ((Agar) culture solution, Culture method, Test preparation, Test method) was performed in accordance with a BSAC standardization disc sensitivity test method (8th edition). […] As a positive control, chloramphenicol (Wako Pure Chemical Industries, “036-10571”) of an antibacterial component to be used as a pharmaceutical agent was dissolved in DMSO and adjusted and, as a negative control, DMSO was used. The samples thus adjusted were immersed in the paper disc, disposed on an agar medium in which bacillus subtilis was seeded, cultured, and then, after 24 hours later, the measurement of the inhibition zone was performed. The reliability of this example is confirmed from the size of the inhibition zone by chloramphenicol.

[4] = tested on: SCC-4 cells (human oral cancer cells); experiment: Oral cancer cell growth inhibitory action using SCC-4 cells (Cell counting kit-8); type: cell-based; conditions: read-out: Cell growth inhibition ability (IC50)
Description: For culturing of the SCC-4 cells, a DMEM/F-12 (1:1) culture medium (manufactured by GIBCO) containing 400 ng/mL hydrocortisone (manufactured by Sigma-Aldrich Japan), 1% antibiotic-antimycotic (manufactured by GIBCO), and 10% FBS (Fetal Bovine Serum, manufactured by ATCC) was used. For the test, a collagen I coat 96-well plate for cell culture (manufactured by Japan BD) was used, and SCC-4 cells whose number of cells was adjusted to be 5×10^5 cells/mL were seeded with 100 μL/well. The cells were cultured under the conditions of 37° C. and 5% CO2 for 24 hours, and were used for the test in a confluent state of 80% or higher.
With respect to the sample preparation, each compound was dissolved with DMSO, and then prepared in such a manner as to be 0.63 mM, 1.25 mM, 2.5 mM, 5 mM, and 10 mM. The samples were added in such a manner that the final concentration in the SCC-4 cell culture solution was 6.3 μM, 12.5 μM, 25 μM, 50 μM, and 100 μM, and then the test was started. The sample to which an equivalent amount of only DMSO as the solvent was added was used as a negative control.
The number of viable cells was quantified by an MTT method using a “Cell counting kit-8” in the same manner as in Example 3, and the concentration IC50 at which the cell growth is inhibited by 50% was calculated.

[5] = molecular target: rat intestine derived lipase; experiment: Lipase inhibitory action test (Lipase kit S); type: biochemical; conditions: 30° C., 10 minutes reaction
Description: As lipase, one obtained by suspending 100 mg of rat derived intestine acetone powder (manufactured by Sigma-Aldrich Japan) in 1 mL of 100 mM citric acid buffer (pH 6.0), stirring the same at 4° C. for 1 hour, centrifuging the same (at 15000 rpm for 45 minutes at 4° C.) to obtain a supernatant, and then diluting the supernatant by 1500 times was used as a lipase solution.
With respect to the sample preparation, those obtained by dissolving each compound with DMSO, and then preparing in such a manner as to be 0.1 mM, 0.5 mM, 1 mM, 2 mM, and 4 mM were used.
For measuring the activity, a “Lipase kit S” (Trade name, manufactured by Dainippon Pharmaceutical Co., Ltd.) was used. First, in accordance with a preparation method described in the catalog of the Lipase kit S, a color developing liquid was prepared. Reaction liquids in which 70 μL, of the color developing liquid, 2 μL of an esterase inhibitor, 10 μL of the lipase solution, and 10 μL of the samples (Final concentration: 10 μM, 50 μM, 100 μM, 200 μM, 400 μM, and 1000 μM) were mixed were prepared, preincubated at 30° C. for 5 minutes, and then 8 μl of a substrate solution described in the catalog was added. Then, a reaction was started. After reacting for 10 minutes, 150 μL of a reaction stop liquid prepared in accordance with the preparation method described in the catalog of the Lipase kit S was added to stop the reaction. […]

[6] = Physicochemical properties: solubility in solvents

IC50 ([1]; Homo sapiens) [µM]	IC50 [2] [µM]	IC50 [4] [µM]	IC50 [5] [µM]	Solubility ([6]; Chloroform)	Solubility ([6]; DMSO)	Solubility ([6]; Ethanol)	Solubility ([6]; Ethyl acetate)	Solubility ([6]; Methanol)	Solubility ([6]; Water)	IC50 [1] [µM]	SMILES	Effect of inhibiting the growth of the HL-60 cells compared with resveratrol and E-viniferin [1]	Antioxidation activity compared with resveratrol [2]	zone of inhibition at 1000 µM [3] [mm]	zone of inhibition at 5000 µM [3] [mm]	zone of inhibition at 10000 µM [3] [mm]	zone of inhibition at 50000 µM ([3]; NBRC3134, added concentration 50 mM) [mm]
30	50	52.1	311	Poorly soluble	Soluble	Soluble	Poorly soluble	Soluble	Poorly soluble		Oc1ccc(/C=C/c2cc(O)cc3c2C(c2ccc(O)cc2)Cc2cc(O)cc(O)c2-3)cc1 (single isomer, unassigned) [UHA 4002]	twice or higher	as high as twice	8.5	11	13.3	
30	50	32.4		Poorly soluble	Soluble	Soluble	Poorly soluble	Soluble	Poorly soluble		Oc1ccc(/C=C\c2cc(O)c3c(c2)-c2c(O)cc(O)cc2CC3c2ccc(O)cc2)cc1 (single isomer, unassigned) [UHA 4003]	twice or higher	as high as twice	8.3	10.5	11.8	
80		> 100	> 1000								Oc1ccc(/C=C/c2cc(O)cc(O)c2)cc1 [Resveratrol, trans-resveratrol, reference compound]			0	0	0	10
										60	Oc1ccc(/C=C/c2cc(O)cc3c2[C@@H](c2cc(O)cc(O)c2)[C@H](c2ccc(O)cc2)O3)cc1 [ε-viniferin, reference compound]						
